Earlier results in patent publication EP1693447A1, “Procedure for the preparation of superoxide dismutase” (Gnosis S.p.A., priority 2005, dated 2006).

Tested on: superoxide dismutase
Settings: SOD currently on the market

For “Bovine liver - PEG superoxide dismutase - freeze-dried powder: type of SOD currently on the market, PEG superoxide dismutase”, the “superoxide dismutase units/mg of protein” value is given as “Bovine liver - PEG superoxide dismutase - freeze-dried powder ≥ 1,350 units/mg of protein”.
